Reference: patent publication US6187905A, “Alpha-ketoamide derivatives” (Hoffmann-La Roche Inc., priority 1998, dated 2001)
Where two headings read alike, the source gives them in different places. *1 amine or outer side, *2 acyl side, *3 side chain or, on linkers, in order; H or OH if unused. Where a SMILES comes first, the peptide text is derived from it. [ ]: non-standard residue; d: D form. The star is where a group is joined. Phe(2-Me) = Cc1ccccc1C[C@H](N)C(=O)O; NleCONH2 = CCCC[C@H](N*)C(=O)C(N)=O; Suc = O=C(CCC(=O)[*:2])[*:1]; Tle = CC(C)(C)[C@H](N)C(=O)O

Target: HCV proteinase (Hepatitis C virus genotype 1a, UniProt P27958)
Assay: HCV proteinase inhibition assay (described in WO 98/22496)
Type: biochemical
Source text: As mentioned earlier, the compounds of formula I and their salts are inhibitors of proteases of viral origin. For example, all compounds of formula 1 are inhibitors against HCV protease.

Chain of HCV proteinase (P27958 1027-1208): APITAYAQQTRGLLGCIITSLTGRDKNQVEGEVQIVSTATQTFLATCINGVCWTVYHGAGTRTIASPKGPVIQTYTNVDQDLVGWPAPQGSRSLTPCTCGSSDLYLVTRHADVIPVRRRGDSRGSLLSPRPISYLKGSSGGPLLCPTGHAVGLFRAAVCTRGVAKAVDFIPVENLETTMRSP

Row | Compound | IC50 | IC50 (read-out: HCV proteinase IC50)
1 | COc1cccc(CNC(=O)C(=O)C(CC(F)(F)F)NC(=O)[C@H](CC(C)C)NC(=O)[C@@H](NC(=O)[C@H](Cc2ccccc2C)NC(=O)[C@H](CCC(=O)O)NC(=O)[C@H](CC(=O)O)NC(=O)CCC(=O)O)C(C)(C)C)c1 (mixture of isomers) [F, 3(RS)-[[N-[N-[N-[N-[N-(3-Carboxypropionyl)-L-α-aspartyl]-L-α-glutamyl]-2-methyl-L-phenylalanyl]-3-methyl-L-valyl]-L-leucyl]amino]-5,5,5-trifluoro-N-(3-methoxybenzyl)-2-oxovaleramide] | 6 nM | –
2 | Cc1ccccc1C[C@H](NC(=O)[C@H](CCC(=O)O)NC(=O)[C@H](CC(=O)O)NC(=O)CCC(=O)O)C(=O)N[C@H](C(=O)N[C@@H](CC(C)C)C(=O)NC(CC(F)(F)F)C(=O)C(=O)N[C@H](c1ccccc1)C(C)C)C(C)(C)C (mixture of isomers) [C, 3(RS)-[[N-[N-[N-[N-[N-(3-Carboxypropionyl)-L-α-aspartyl]-L-α-glutamyl]-2-methyl-L-phenylalanyl]-3-methyl-L-valyl]-L-leucyl]amino]-5,5,5-trifluoro-N-(2-methyl-1(S)-phenylpropyl)-2-oxovaleramide] | 7 nM | –
3 | Cc1ccccc1C[C@H](NC(=O)[C@H](CCC(=O)O)NC(=O)[C@H](CC(=O)O)NC(=O)CCC(=O)O)C(=O)N[C@H](C(=O)N[C@@H](CC(C)C)C(=O)NC(CC(F)(F)F)C(=O)C(=O)N[C@@H](C)c1ccc2ccccc2c1)C(C)(C)C (mixture of isomers) [I] | – | 8 nM
4 | Cc1ccccc1C[C@H](NC(=O)[C@H](CCC(=O)O)NC(=O)[C@H](CC(=O)O)NC(=O)CCC(=O)O)C(=O)N[C@H](C(=O)N[C@@H](CC(C)C)C(=O)NC(CC(F)(F)F)C(=O)C(=O)NCc1ccc(O)cc1)C(C)(C)C (mixture of isomers) [E, 3(RS)-[[N-[N-[N-[N-[N-(3-Carboxypropionyl)-L-α-aspartyl]-L-α-glutamyl]-2-methyl-L-phenylalanyl]-3-methyl-L-valyl]-L-leucyl]amino]-5,5,5-trifluoro-N-(4-hydroxybenzyl)-2-oxovaleramide] | 4 nM | –
5 | Cc1ccccc1C[C@H](NC(=O)[C@H](CCC(=O)O)NC(=O)[C@H](CC(=O)O)NC(=O)CCC(=O)O)C(=O)N[C@H](C(=O)N[C@@H](CC(C)C)C(=O)NC(CC(F)(F)F)C(=O)C(=O)N[C@@H](C)c1ccccc1)C(C)(C)C (mixture of isomers) [G, 3(RS)-[[N-[N-[N-[N-[N-(3-Carboxypropionyl)-L-α-aspartyl]-L-α-glutamyl]-2-methyl-L-phenylalanyl]-3-methyl-L-valyl]-L-leucyl]amino]-5,5,5-trifluoro-N-(α(S)-methylbenzyl)-2-oxovaleramide] | 4 nM | –
6 | Cc1ccccc1C[C@H](NC(=O)[C@H](CCC(=O)O)NC(=O)[C@H](CC(=O)O)NC(=O)CCC(=O)O)C(=O)N[C@H](C(=O)N[C@@H](CC(C)C)C(=O)NC(CC(F)(F)F)C(=O)C(N)=O)C(C)(C)C (single isomer, unassigned) [D, 3(R or S)-[[N-[N-[N-[N-[N-(3-Carboxypropionyl)-L-α-aspartyl]-L-α-glutamyl]-2-methyl-L-phenylalanyl]-3-methyl-L-valyl]-L-leucyl]amino]-5,5,5-trifluoro-2-oxovaleramide] | 7 nM | –
7 | CC[C@H](NC(=O)C(=O)C(CC(F)(F)F)NC(=O)[C@H](CC(C)C)NC(=O)[C@@H](NC(=O)[C@H](Cc1ccccc1C)NC(=O)[C@H](CCC(=O)O)NC(=O)[C@H](CC(=O)O)NC(=O)CCC(=O)O)C(C)(C)C)c1ccccc1 (mixture of isomers) [B, 3(RS)-[[N-[N-[N-[N-[N-(3-Carboxypropionyl)-L-α-aspartyl]-L-α-glutamyl]-2-methyl-L-phenylalanyl]-3-methyl-L-valyl]-L-leucyl]amino]-5,5,5-trifluoro-2-oxo-N-(1(S)-phenylpropyl)valeramide] | 7 nM | –
8 | CCCC[C@H](NC(=O)[C@H](CC(C)C)NC(=O)[C@@H](NC(=O)[C@H](Cc1ccccc1C)NC(=O)[C@H](CCC(=O)O)NC(=O)[C@H](CC(=O)O)NC(=O)CCC(=O)O)C(C)(C)C)C(=O)C(N)=O [J, 3(S)-[[N-[N-[N-[N-[N-(3-Carboxypropionyl)-L-α-aspartyl]-L-α-glutamyl]-2-methyl-L-phenylalanyl]-3-methyl-L-valyl]-L-leucyl]amino]-2-oxoheptanamide] (Suc-DE[Phe(2-Me)][Tle]L-NleCONH2) | 11.5 nM | –
9 | Cc1ccccc1C[C@H](NC(=O)[C@H](CCC(=O)O)NC(=O)[C@H](CC(=O)O)NC(=O)CCC(=O)O)C(=O)N[C@H](C(=O)N[C@@H](CC(C)C)C(=O)NC(CC(F)(F)F)C(=O)C(=O)N[C@@H](C)c1ccc2ccccc2c1)C(C)(C)C (mixture of isomers) [A] | – | 4 nM
10 | Cc1ccccc1C[C@H](NC(=O)[C@H](CCC(=O)O)NC(=O)[C@H](CC(=O)O)NC(=O)CCC(=O)O)C(=O)N[C@H](C(=O)N[C@@H](CC(C)C)C(=O)NC(CC(F)(F)F)C(=O)C(=O)NCc1ccccc1)C(C)(C)C (mixture of isomers) [H, N-Benzyl-3(RS)-[[N-[N-[N-[N-[N-(3-carboxypropionyl)-L-α-aspartyl]-L-α-glutamyl]-2-methyl-L-phenylalanyl]-3-methyl-L-valyl]-L-leucyl]amino]-5,5,5-trifluoro-2-oxovaleramide] | 4 nM | –
